Test results from patent US8541407B2 (ArQule, Inc., priority 2010, dated 2013).

How the values were obtained:
A2780 = assay: MTS Assay, cell proliferation analysis (A2780); assay type: cell-based; settings: Homo sapiens; A2780 cells; 72 hours; 10 Percent FBS
Method: (§1) Cell proliferation analysis. Cell survival was determined by the MTS assay. Briefly, cells were plated in a 96-well plate at 2,000-10,000 cells per well, cultured for 24 hours in complete growth medium, and then treated with representative compounds of the invention or combinations thereof for 72 hours. MTS was added and incubated for 4 hours, followed by assessment of cell viability by using the microplate reader at 570 nm. Data were normalized to untreated controls and analyzed.

AKT1 = AKT1 (Homo sapiens (Human), UniProt P31749); assay: Inactive Akt Alpha Screen Assay; settings: non *labeled: Akt Alpha Screen assay; read-out: AKT1 biochemical assay, IC50
Sequence of AKT1 (P31749 whole entry): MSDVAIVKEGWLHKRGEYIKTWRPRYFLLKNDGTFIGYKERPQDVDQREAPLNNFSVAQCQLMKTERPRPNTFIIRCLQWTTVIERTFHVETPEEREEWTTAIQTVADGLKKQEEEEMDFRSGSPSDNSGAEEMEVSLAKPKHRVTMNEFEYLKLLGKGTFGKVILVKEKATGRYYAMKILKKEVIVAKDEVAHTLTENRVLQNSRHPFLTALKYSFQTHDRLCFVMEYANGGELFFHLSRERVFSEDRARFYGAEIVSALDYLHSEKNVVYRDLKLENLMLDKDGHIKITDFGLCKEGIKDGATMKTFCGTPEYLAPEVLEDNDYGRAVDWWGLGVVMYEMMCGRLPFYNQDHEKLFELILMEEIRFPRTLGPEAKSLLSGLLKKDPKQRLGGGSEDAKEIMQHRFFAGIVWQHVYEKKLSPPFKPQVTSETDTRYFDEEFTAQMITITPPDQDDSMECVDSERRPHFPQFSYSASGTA
Procedure, shortened: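 AKT1 activated in situ by PDK1, MAPKAPK2, lipid vesicles and ATP, then phosphorylating biotinylated crosstide for 30 min at room temperature. Stopped with 10 mM EDTA; phosphopeptide detected by AlphaScreen using phospho-AKT substrate antibody (1:350), Protein A acceptor and streptavidin donor beads, 90 min dark, ex 640/em 570 nm.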

AN3-CA = assay: MTS Assay, cell proliferation analysis (AN3-CA); assay type: cell-based; settings: Homo sapiens; AN3-CA cells; 72 hours; 10 Percent FBS
Method: as §1

Row | SMILES | IC50 (A2780) | IC50 (AKT1) | IC50 (AN3-CA)
1 | COc1cccc(S(=O)(=O)NCc2ccc(-c3nnc4n3-c3cccnc3Nc3ccccc3-4)cc2)c1 [Example 114, N-(4-(9H-benzo[f]pyrido[2,3-b][1,2,4]triazolo[4,3-d][1,4]diazepin-3-yl)benzyl)-3-methoxybenzenesulfonamide] | 16 µM | 0.14 µM | 25 µM
2 | c1ccc2c(c1)Nc1ncccc1-n1c(-c3ccc(CN4CCC(c5c[nH]c6ccccc56)CC4)cc3)nnc1-2 [Example 187, 3-(4-((4-(1H-indol-3-yl)piperidin-1-yl)methyl)phenyl)-9H-benzo[f]pyrido[2,3-b][1,2,4]triazolo[4,3-d][1,4]diazepine] | 6 µM | 0.5 µM | 8 µM
3 | O=S(=O)(NCc1ccc(-c2nnc3n2-c2cccnc2Nc2ccccc2-3)cc1)c1ccc(F)cc1 [Example 117, N-(4-(9H-benzo[f]pyrido[2,3-b][1,2,4]triazolo[4,3-d][1,4]diazepin-3-yl)benzyl)-4-fluorobenzenesulfonamide] | 19 µM | 0.12 µM | 37 µM
4 | Cc1cccc(S(=O)(=O)NCc2ccc(-c3nnc4n3-c3cccnc3Nc3ccccc3-4)cc2)c1 [Example 115, N-(4-(9H-benzo[f]pyrido[2,3-b][1,2,4]triazolo[4,3-d][1,4]diazepin-3-yl)benzyl)-3-methylbenzenesulfonamide] | 16 µM | 0.11 µM | 28 µM
5 | Cc1noc(C)c1S(=O)(=O)NC1CCN(Cc2ccc(-c3nnc4n3-c3cccnc3Nc3ccccc3-4)cc2)CC1 [Example 146, N-(1-(4-(9H-benzo[f]pyrido[2,3-b][1,2,4]triazolo[4,3-d][1,4]diazepin-3-yl)benzyl)piperidin-4-yl)-3,5-dimethylisoxazole-4-sulfonamide] |  | 6.8 µM | 
6 | CCCNCc1ccc(-c2nnc3n2-c2cccnc2Nc2ccccc2-3)cc1 [Example 87, N-(4-(9H-benzo[f]pyrido[2,3-b][1,2,4]triazolo[4,3-d][1,4]diazepin-3-yl)benzyl)propan-1-amine] |  | 5.8 µM | 
7 | c1coc(-c2nnc3n2-c2cccnc2Nc2ccccc2-3)c1 [Example 2] |  | 6.3 µM | 
8 | Cc1cccc2c1Nc1ncccc1-n1c(-c3ccc(C4(N)CCC4)cc3)nnc1-2 [Example 218, 1-(4-(10-methyl-9H-benzo[f]pyrido[2,3-b][1,2,4]triazolo[4,3-d][1,4]diazepin-3-yl)phenyl)cyclobutanamine] |  | 1.4 µM | 
9 | CCOC(=O)N1CCC(NCc2ccc(-c3nnc4n3-c3cccnc3Nc3ccccc3-4)cc2)CC1 [Example 89, ethyl 4-((4-(9H-benzo[f]pyrido[2,3-b][1,2,4]triazolo[4,3-d][1,4]diazepin-3-yl)benzyl)amino)piperidine-1-carboxylate] |  | 2.3 µM | 
10 | Cc1noc(C2CCCN(Cc3ccc(-c4nnc5n4-c4cccnc4Nc4ccccc4-5)cc3)C2)n1 (stereo not shown) [Example 190, 5-(1-(4-(9H-benzo[f]pyrido[2,3-b][1,2,4]triazolo[4,3-d][1,4]diazepin-3-yl)benzyl)piperidin-3-yl)-3-methyl-1,2,4-oxadiazole] |  | 0.41 µM | 
11 | Cc1ccc2c(c1)Nc1ncccc1-n1c(-c3ccc(C4(N)CCC4)cc3)nnc1-2 [Example 223, 1-(4-(11-methyl-9H-benzo[f]pyrido[2,3-b][1,2,4]triazolo[4,3-d][1,4]diazepin-3-yl)phenyl)cyclobutanamine] |  | 0.49 µM | 
12 | O=S(=O)(NCc1ccc(-c2nnc3n2-c2cccnc2Nc2ccccc2-3)cc1)c1ccccc1F [Example 112, N-(4-(9H-benzo[f]pyrido[2,3-b][1,2,4]triazolo[4,3-d][1,4]diazepin-3-yl)benzyl)-2-fluorobenzenesulfonamide] |  | 0.17 µM | 

More lines, in order of falling IC50 (AKT1), values ahead:

Row | IC50 (A2780) | IC50 (AKT1) | SMILES | IC50 (AN3-CA)
13 |  | 5.3 µM | Cc1nc(C)c(S(=O)(=O)NC2CCN(Cc3ccc(-c4nnc5n4-c4cccnc4Nc4ccccc4-5)cc3)CC2)s1 [Example 153, N-(1-(4-(9H-benzo[f]pyrido[2,3-b][1,2,4]triazolo[4,3-d][1,4]diazepin-3-yl)benzyl)piperidin-4-yl)-2,4-dimethylthiazole-5-sulfonamide] | 
14 |  | 5 µM | CC(=O)Nc1ccc(S(=O)(=O)NC2CCN(Cc3ccc(-c4nnc5n4-c4cccnc4Nc4ccccc4-5)cc3)CC2)cc1 [Example 151, N-(4-(N-(1-(4-(9H-benzo[f]pyrido[2,3-b][1,2,4]triazolo[4,3-d][1,4]diazepin-3-yl)benzyl)piperidin-4-yl)sulfamoyl)phenyl)acetamide] | 
15 | 15 µM | 2 µM | O=S(=O)(NC1CCN(Cc2ccc(-c3nnc4n3-c3cccnc3Nc3ccccc3-4)cc2)CC1)c1ccc2c(c1)OCCO2 [Example 156, N-(1-(4-(9H-benzo[f]pyrido[2,3-b][1,2,4]triazolo[4,3-d][1,4]diazepin-3-yl)benzyl)piperidin-4-yl)-2,3-dihydrobenzo[b][1,4]dioxine-6-sulfonamide] | 20 µM
16 |  | 1.2 µM | Cc1ccccc1CNC(=O)NC1CCN(Cc2ccc(-c3nnc4n3-c3cccnc3Nc3ccccc3-4)cc2)CC1 [Example 181, 1-(1-(4-(9H-benzo[f]pyrido[2,3-b][1,2,4]triazolo[4,3-d][1,4]diazepin-3-yl)benzyl)piperidin-4-yl)-3-(2-methylbenzyl)urea] | 
17 |  | 1.2 µM | O=C(Nc1cccc(Cl)c1)NC1CCN(Cc2ccc(-c3nnc4n3-c3cccnc3Nc3ccccc3-4)cc2)CC1 [Example 176, 1-(1-(4-(9H-benzo[f]pyrido[2,3-b][1,2,4]triazolo[4,3-d][1,4]diazepin-3-yl)benzyl)piperidin-4-yl)-3-(3-chlorophenyl)urea] | 
18 | 10 µM | 0.75 µM | O=C(NCCc1cccs1)NC1CCN(Cc2ccc(-c3nnc4n3-c3cccnc3Nc3ccccc3-4)cc2)CC1 [Example 182, 1-(1-(4-(9H-benzo[f]pyrido[2,3-b][1,2,4]triazolo[4,3-d][1,4]diazepin-3-yl)benzyl)piperidin-4-yl)-3-(2-(thiophen-2-yl)ethyl)urea] | 28 µM
19 |  | 0.24 µM | Cc1cc(C(=O)NC2(c3ccc(-c4nnc5n4-c4cccnc4Nc4ccccc4-5)cc3)CCC2)no1 [Example 206, N-(1-(4-(9H-benzo[f]pyrido[2,3-b][1,2,4]triazolo[4,3-d][1,4]diazepin-3-yl)phenyl)cyclobutyl)-5-methylisoxazole-3-carboxamide] | 
20 | 4 µM | 0.21 µM | Fc1ccc2c(CCNCc3ccc(-c4nnc5n4-c4cccnc4Nc4ccccc4-5)cc3)c[nH]c2c1 [Example 202, N-(4-(9H-benzo[f]pyrido[2,3-b][1,2,4]triazolo[4,3-d][1,4]diazepin-3-yl)benzyl)-2-(6-fluoro-1H-indol-3-yl)ethanamine] | 15 µM
21 |  | 0.2 µM | O=C(NCc1ccc(-c2nnc3n2-c2cccnc2Nc2ccccc2-3)cc1)c1ccccc1 [Example 99, N-(4-(9H-benzo[f]pyrido[2,3-b][1,2,4]triazolo[4,3-d][1,4]diazepin-3-yl)benzyl)benzamide] | 
22 |  | 0.17 µM | c1ccc2c(c1)Nc1ncccc1-n1c(-c3ccc(CN4CCC(c5nnc(-c6ccncc6)[nH]5)CC4)cc3)nnc1-2 [Example 131, 3-(4-((4-(5-(pyridin-4-yl)-4H-1,2,4-triazol-3-yl)piperidin-1-yl)methyl)phenyl)-9H-benzo[f]pyrido[2,3-b][1,2,4]triazolo[4,3-d][1,4]diazepine] | 
23 | 10 µM | 0.15 µM | Clc1ccc2nc(CCNCc3ccc(-c4nnc5n4-c4cccnc4Nc4ccccc4-5)cc3)[nH]c2c1 [Example 203, N-(4-(9H-benzo[f]pyrido[2,3-b][1,2,4]triazolo[4,3-d][1,4]diazepin-3-yl)benzyl)-2-(6-chloro-1H-benzo[d]imidazol-2-yl)ethanamine] | 13 µM
24 | 21 µM | 0.15 µM | O=S(=O)(NCc1ccc(-c2nnc3n2-c2cccnc2Nc2ccccc2-3)cc1)c1cccc(Cl)c1 [Example 116, N-(4-(9H-benzo[f]pyrido[2,3-b][1,2,4]triazolo[4,3-d][1,4]diazepin-3-yl)benzyl)-3-chlorobenzenesulfonamide] | 23 µM
25 | 27 µM | 0.13 µM | COc1cccc(NC(=O)NCc2ccc(-c3nnc4n3-c3cccnc3Nc3ccccc3-4)cc2)c1 [Example 123, 1-(4-(9H-benzo[f]pyrido[2,3-b][1,2,4]triazolo[4,3-d][1,4]diazepin-3-yl)benzyl)-3-(3-methoxyphenyl)urea] | 48 µM
26 | 14 µM | 0.11 µM | Cc1ccc(S(=O)(=O)NCc2ccc(-c3nnc4n3-c3cccnc3Nc3ccccc3-4)cc2)cc1 [Example 118, N-(4-(9H-benzo[f]pyrido[2,3-b][1,2,4]triazolo[4,3-d][1,4]diazepin-3-yl)benzyl)-4-methylbenzenesulfonamide] | 28 µM
27 |  | 0.076 µM | N#Cc1cccc(C(=O)Nc2ccc(-c3nnc4n3-c3cccnc3Nc3ccccc3-4)cc2)c1 [Example 60, N-(4-(9H-benzo[f]pyrido[2,3-b][1,2,4]triazolo[4,3-d][1,4]diazepin-3-yl)phenyl)-3-cyanobenzamide] | 
28 | 12 µM | 0.073 µM | O=C(NC1(c2ccc(-c3nnc4n3-c3cccnc3Nc3ccccc3-4)cc2)CCC1)c1ccccc1 [Example 193, N-(1-(4-(9H-benzo[f]pyrido[2,3-b][1,2,4]triazolo[4,3-d][1,4]diazepin-3-yl)phenyl)cyclobutyl)benzamide] | 22 µM
29 | 32 µM | 0.07 µM | O=C(Nc1ccc(-c2nnc3n2-c2cccnc2Nc2ccccc2-3)cc1)c1ccccc1 [Example 59, N-(4-(9H-benzo[f]pyrido[2,3-b][1,2,4]triazolo[4,3-d][1,4]diazepin-3-yl)phenyl)benzamide] | 28 µM
